According to patent publication US10213516B2, “Labelled carboxylic acids and their uses in molecular imaging” (Imperial Innovations Limited, priority 2013, dated 2019):
Entries after “also recorded” stand apart in the source; their conditions may differ.

Experiments:
BT474 cells = assay: Metabolism experiments in cells (LC-MS); assay type: cell-based, human
Method: (§1) EMT6 murine breast cancer cells (LGC Standards) were grown in Waymouth's medium (Life Technologies), with U87 human glioma cells (LGC Standards) grown in DMEM medium (Life Technologies). DU145 (kind donation from Dr. Almut Schulze, CRUK London Research Institute) and BT474 (LGC Standards) were grown in RPMI (Life Technologies). All media were supplemented with 2.5 mL penicillin/streptomycin (10,000 IU·mL^−1/10,000 […]) and 2 mM L-glutamine (Life Technologies). Waymouth's medium contained 15% fetal calf serum (FCS), with 10% FCS added to DMEM and RPMI. All cells were propagated at 37° C. in a humidified atmosphere containing 5% CO2.
BT474 cells were seeded in 12-well plates at 2×10^5 cells per well. For measurement of FDMP uptake, the media was replaced with media supplemented with 500 μM FDMP and incubated for the indicated times. All media samples were harvested at the same time and immediately diluted into ice-cold extraction solution of methanol, acetonitrile, and water (5:3:2) (All chemicals were purchased from Fisher Scientific and were LC-MS grade). Cell numbers were assumed to be identical. The amount of extraction solution added to each well was determined by cell counts obtained from a counting plate run in parallel (1 mL/2×10^6 cells). Extracts were vortexed for 10 min at 4° C. and then centrifuged at 16,500 g at 4° C. for 15 min. Supernatants were removed and analyzed by LC-MS (ZIC-pHelic HPLC columns and Exactive Plus Orbitrap MS (ThermoScientific). Data was analyzed using Xcalibur and LCQuan software (ThermoScientific). FDMP and FAC standards were run in isolation for quantification.

[1] = tested on: DU145 prostate adenocarcinoma tumours; assay: PET imaging of DU145 tumour-bearing mice; assay type: in vivo; details: for Tumour visibility by PET: DU145, 50-60 min static scans; for Tumour to whole body normalized uptake: 50-60 min static scans
Method: [^18F]FDMP imaging scans were carried out on a GENISYS^4 small animal PET scanner (Sofie Biosciences), following a bolus i.v. injection of ˜1.85 MBq of the radiotracer into tumour-bearing mice. Static scans were acquired for 10 min and images were reconstructed using maximum-likelihood expectation maximization. In a different cohort of mice, dynamic PET imaging was performed on a Siemens Inveon PET module, (Siemens Medical Solutions USA) as described in supplementary materials. Dynamic PET imaging was performed for the [^18F]FDMP and [^18F]FDG comparison study in EMT6 tumour-bearing mice. Static scans on the GENISYS^4 were used for all other experiments. Siemens Inveon Research Workplace software was used for visualization of radiotracer uptake in the tumour and to define the three-dimensional volumes of interest (VOI). Tumour radioactivity were normalized to that of the whole body to obtain the normalized uptake value (NUV) to permit comparison of data obtained using the two scanners.

[2] = tested on: U87 glioma human xenografts; assay: Biodistribution in U87 human glioblastoma-bearing BALB/c nude mice; assay type: in vivo; details: for Tumour/brain ratio: U87 glioma, 60 min post injection; for Tumour uptake: U87 xenografts, 60 min post-radiotracer injection
Method: (§2) All animal experiments were performed by licensed investigators in accordance with the United Kingdom Home Office Guidance on the Operation of the Animal (Scientific Procedures) Act 1986 and within the published guidelines for the welfare and use of animals in cancer research.^22 EMT6 tumour cells (2×10^6; 100 μL PBS) were injected subcutaneously on the back of female BALB/c mice (aged 6-8 weeks; Charles River) and grown to ˜150 mm^3. U87 tumours were grown following subcutaneous injection of 5×10^6 cells (100 μL PBS) on the back of female BALB/c nude mice (aged 6-8 weeks; Charles River), with BT474 tumours induced following injection of 5×10^6 cells in matrigel (BD Biosciences; 1:1 ratio PBS-to-matrigel; 100 μL total). Tumour dimensions were measured periodically using a caliper and tumour volumes were calculated by the equation: volume=(π/6)×a×b×c, where a, b, and c represent three orthogonal axes of the tumour. Inflammation was performed in an aseptic inflammation model as previously described.^23
(§3) [^18F]FDMP (˜3.7 MBq) was injected via the tail vein of anaesthetized EMT6 tumour-bearing BALB/c mice. The mice were maintained under anesthesia and sacrificed by exsanguination via cardiac puncture at 2, 15, 30, 60, 120 or 180 min post radiotracer injection and tissues harvested. Biodistribution studies with BT474 and U87 tumour-bearing nude mice were performed 60 min post [^18F]FDMP injection. Tissue radioactivity was determined on a gamma counter (Cobra II Auto-Gamma counter, Packard Biosciences Co.) and decay corrected. 10 μL standards from a 1:100 dilution of the stock activity were also counted for data normalization. Plasma was obtained from terminal blood samples following centrifugation (14000 g, 5 min). Data were expressed as percent injected dose per gram of tissue (% ID/g).

EMT6 tumours = assay: PET imaging of EMT6 tumour-bearing mice; assay type: in vivo; details: 60 min
Method: All animal experiments were performed by licensed investigators in accordance with the United Kingdom Home Office Guidance on the Operation of the Animal (Scientific Procedures) Act 1986 and within the published guidelines for the welfare and use of animals in cancer research.^22 EMT6 tumour cells (2×10^6; 100 μL PBS) were injected subcutaneously on the back of female BALB/c mice (aged 6-8 weeks; Charles River) and grown to ˜150 mm^3. […] Tumour dimensions were measured periodically using a caliper and tumour volumes were calculated by the equation: volume=(π/6)×a×b×c, where a, b, and c represent three orthogonal axes of the tumour. […]
[^18F]FDMP imaging scans were carried out on a GENISYS^4 small animal PET scanner (Sofie Biosciences), following a bolus i.v. injection of ˜1.85 MBq of the radiotracer into tumour-bearing mice. […] Tumour radioactivity were normalized to that of the whole body to obtain the normalized uptake value (NUV) to permit comparison of data obtained using the two scanners.
Dynamic [^18F]FDMP imaging scans were carried outa dedicated small animal PET scanner (Siemens Inveon PET module, Siemens Medical Solutions USA, Inc., Malvern, Pa., USA) following a bolus i.v. injection of ˜3.7 MBq of the radiotracer into tumour-bearing mice. […] The count densities were averaged for all VOIs at each time point to obtain a time versus radioactivity curve (TAC). […]

[3] = tested on: Turpentine-induced inflammatory tissue; assay: Aseptic inflammation model biodistribution; assay type: in vivo; details: for Inflammation-to-muscle ratio: in vivo; for Accumulation in chemically-induced inflammatory tissues: turpentine-treated muscle
Method: as §2, §3

[4] = tested on: EMT6 murine breast adenocarcinoma xenografts; assay: Biodistribution time course in EMT6 tumour-bearing BALB/c mice; assay type: in vivo
Method: as §2, §3

[5] = tested on: orthotopic U87 brain tumour; assay: PET imaging in orthotopic U87 brain tumour model; assay type: in vivo; details: 15-30 min and 45-60 min post radiotracer injection
Method: FIG. 14. [^18F]FDMP and [^18F]FDG uptake in an orthotopic U87 brain tumour model. PET images were acquired 15-30 min and 45-60 min post radiotracer injection 6 weeks after intracranial injection of U87 glioma cells. White arrows indicate the tumour.
[^18F]FDMP and [^18F]FDG uptake in an orthotopic U87 brain tumour model was analysed (FIG. 14). […] The background is very low, so good staining is achieved.

BT474 tumours = assay: Biodistribution in BT474 tumour-bearing nude mice; assay type: in vivo, BALB/c nude mice; details: 60 min post injection
Method: as §2, with “Inflammation was performed in an aseptic inflammation model as previously described.^23” left out
[^18F]FDMP (˜3.7 MBq) was injected via the tail vein of anaesthetized EMT6 tumour-bearing BALB/c mice. […] Tissue radioactivity was determined on a gamma counter (Cobra II Auto-Gamma counter, Packard Biosciences Co.) and decay corrected. 10 μL standards from a 1:100 dilution of the stock activity were also counted for data normalization. […] Data were expressed as percent injected dose per gram of tissue (% ID/g).

[6] = In vivo radiotracer stability and metabolism (radio-HPLC of tissue extracts); set-up: species or system BALB/c non-tumour-bearing mice
Method: Radiolabeled metabolites from plasma and tissues were quantified using an adapted method.^24 BALB/c non-tumour-bearing mice under general anesthesia (2.5% isofluorane; non-recovery anesthesia) were administered a bolus i.v. injection of [^18F]FDMP (˜7.4 MBq), and sacrificed by exsanguination via cardiac puncture 30 min post radiotracer injection. Heart, urine and liver samples were immediately snap-frozen in liquid nitrogen. Aliquots of heparinized blood were rapidly centrifuged (14000 g, 5 min, 4° C.) to obtain plasma. Plasma samples were subsequently snap-frozen in liquid nitrogen and kept on dry ice prior to analysis. For analysis, samples were thawed and kept at 4° C. immediately before use. To ice cold plasma and urine (200 μL) was added ice-cold methanol (600 μL) and the resulting suspension centrifuged (14000 g; 4° C.; 3 min). 300 μL of the resulting supernatant was added to 1 mL ice cold mobile phase. […] Samples were analyzed on an Agilent 1100 series HPLC system (Agilent Technologies, Santa Clara, Calif., USA), using an isocratic method of 10% MeOH in an ion pair buffer prepared as follows and a μBondapak C18 semi preparative HPLC column (Waters, Milford, Mass., USA; […]). […]

[7] = tested on: EMT6 murine breast cancer cells; assay: [18F]FDMP uptake in cells (gamma counting); assay type: cell-based
Method: as §1
EMT6 cells (2×10^5) were plated into 6-well plates overnight prior to analysis. On the day of the experiment fresh growth medium containing 0.74 MBq [^18F]FDMP were added to individual wells (1 mL/well). Cell uptake was measured over 60 min post radiotracer addition. Plates were placed on ice, washed 3 times with ice-cold PBS and lysed in RIPA buffer (Thermo Fisher Scientific Inc.; 1 mL, 10 min). Cell lysates were transferred to counting tubes and decay-corrected radioactivity was determined on a gamma counter (Cobra II Auto-Gamma counter, Packard Biosciences Co.). Aliquots were snap-frozen and used for protein determination following radioactive decay using a BCA 96-well plate assay (Thermo Fisher Scientific Inc.). In addition, 10 μL standards from a 0.74 MBq/mL stock solution were counted to quantitate % radiotracer uptake. For carnitine treatment, cells were incubated with 10 μM L-carnitine for the duration of the uptake time course.

[8] = PET/CT imaging in healthy BALB/c mice; assay type: in vivo
tumour = details: cited from earlier work

Molecule: CC(C)(CF)C(=O)O [[^19F]FDMP]
- Uptake by BT474 cells detected by mass spectrometry (BT474 cells; 500 μM in medium): rapidly taken up
- Intracellular metabolites observed by LC-MS (BT474 cells; 500 μM in medium, BT474 cells): no other metabolites were observed

Molecule: O=C(O)CF [[^19F]FAC, [^19F]fluroacetate, reference compound]
- Intracellular metabolites observed by LC-MS (BT474 cells; 500 μM in medium, BT474 cells): only the parent compound and [^19F]fluorocitrate were observed
- Effect on intracellular metabolite pools (citrate, cis-aconitate, alpha-ketoglutarate) (BT474 cells; BT474 cells, LC-MS): significant increase in citrate and cis-aconitate, together with significant decrease in alpha-ketoglutarate

Molecule: [^18F]2-fluoro-2-deoxyglucose [[^18F]FDG, reference compound]
- Tumour visibility by PET [1]: not visible above background
- Tumour to whole body normalized uptake ([1]; DU145 prostate tumours): 0.47±0.09 NUV
- Tumour/brain ratio [2]: 1.3
- Tumour uptake [2]: 11.0±1.1 % ID/g
- Tumour to whole body normalized uptake (EMT6 tumours): 1.02±0.16 NUV
- Inflammation-to-muscle ratio [3]: 2.66
- Accumulation in chemically-induced inflammatory tissues [3]: 5.86±0.68 % ID/g

Molecule: CC(C)(C[18F])C(=O)O [[^18F]FDMP, [^18F]3-fluoro-2,2-dimethylpropanoic acid]
- Tumour visibility by PET [1]: clearly discernable
- Tumour uptake higher than [18F]FDG ([1]; DU145 prostate tumours): 54%
- Tumour to whole body normalized uptake ([1]; DU145 prostate tumours): 0.73±0.07 NUV
- Bone uptake ([4]; 2, 15, 30 and 60 minutes after administration): low bone uptake
- Tumour to blood ratio ([4]; EMT6, after 60 minutes): up to 2.32
- Tumour-associated radioactivity ([4]; EMT6 tumour, 30 min post injection): 9.3±1.0 % ID/g
- Tumour-associated radioactivity ([4]; EMT6 tumour, 120 min post radiotracer injection): 9.8±2.0 % ID/g
- Tumour-associated radioactivity ([4]; EMT6 tumour, 180 min): 6.3±0.7 % ID/g
- Reduction of tumour-associated radioactivity ([4]; EMT6 tumour, by 180 min): 36%
- Tumour radioactivity ([4]; EMT6 tumours, 60 min post injection): 9.1±0.5 % ID/g
- Blood-brain barrier passage ([4]; gamma counting and dynamic PET): able to cross the blood-brain barrier; also recorded: passes the blood brain barrier
- Tumour/brain ratio [2]: 2.5
- Tumour uptake [2]: 9.35±1.0 % ID/g
- Uptake in the normal brain ([2]; compared with [18F]FDG): significantly lower than [^18F]FDG
- Tumour to whole body normalized uptake (EMT6 tumours): 1.15±0.13 NUV
- Tumour staining in PET images [5]: good staining of the U87 tumour was visible
- Tumour radioactivity (BT474 tumours): 7.6±1.2 % ID/g
- Stability in plasma, liver and heart by radioHPLC ([6]; 30 min post injection): no degradation; also recorded: only peaks of the parent compound detectable
- Parent peak fraction in urine ([6]; urine, 30 min): 61.8±6.6 % radioactivity
- Uptake into EMT6 tumour cells ([7]; 30 min of incubation): 1.40±0.10 % radioactivity/mg protein
- Uptake into EMT6 tumour cells ([7]; 60 min post radiotracer addition (plateau)): 1.47±0.04 % radioactivity/mg protein
- Uptake increase compared to control cells ([7]; incubation with 10 μM L-carnitine): 44%
- Inflammation-to-muscle ratio [3]: 2.36
- Accumulation in chemically-induced inflammatory tissues [3]: 6.53±1.13 % ID/g
- Defluorination of the tracer (retention in bones) [8]: no defluorination

Molecule: CC([18F])C(=O)O (centres unmarked) [[^18F]FPA, [^18F]2-fluoropropionic acid]
- Tumour-to-brain ratio (tumour; 60 minutes post-injection): 1.27
- Tumour to blood ratio (tumour; Table 1 in reference 28): 1.03
